We go through ten compounds from article PMC6787163, “Systematic Dual Targeting of Dendritic Cell C-Type Lectin Receptor DC-SIGN and TLR7 Using a Trifunctional Mannosylated Antigen” (Frontiers in Chemistry, 2019).

One experiment deals with T1, DC-SIGN ECD (Homo sapiens, UniProt Q9NNX6).
T1 construct: The ECD of DC-SIGN (residues 66–404) was overexpressed and purified as previously described; made in house
T1 sequence (Q9NNX6 66-404): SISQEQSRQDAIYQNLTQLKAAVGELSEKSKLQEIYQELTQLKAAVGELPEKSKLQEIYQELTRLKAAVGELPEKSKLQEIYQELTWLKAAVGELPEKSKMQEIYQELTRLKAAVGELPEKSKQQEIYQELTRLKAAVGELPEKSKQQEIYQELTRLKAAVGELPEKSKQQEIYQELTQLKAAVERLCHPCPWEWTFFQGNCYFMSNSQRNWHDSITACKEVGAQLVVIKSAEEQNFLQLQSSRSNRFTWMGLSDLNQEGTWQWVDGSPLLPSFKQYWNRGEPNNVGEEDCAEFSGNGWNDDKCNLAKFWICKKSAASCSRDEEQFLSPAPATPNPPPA
As to the kind of experiment: SPR competition (inhibition) assay, DC-SIGN ECD on BSA-mannotriose surface. In kind it is binding. The settings on record: DC-SIGN ECD 20 μM. How it is done:
(§1) The affinity of the clusters for the extracellular domain (ECD) of the DC-SIGN receptor (DC-SIGN ECD) was estimated via surface plasmon resonance (SPR) assays (Tabarani et al., [2009]). The apparent Kd was calculated in direct interaction mode using a surface functionalized in an oriented manner with DC-SIGN ECD. In this assay, tetrameric DC-SIGN ECD is attached to the surface of the sensor chip via the N-terminus of its neck oligomerization domain, thus presenting its four carbohydrate recognition domains toward the solvent, realistically mimicking the presentation of the receptor on cell surface (Porkolab et al., [2019]). For some of the low affinity ligands, in the mM range, it was not possible to determine their affinity with this assay, and therefore a competition experiment was performed providing IC50 values (Timpano et al., [2008]) (Figure 3A). […] When comparing equivalent clusters, the α1,2-di-mannoside (B series) bound with the highest affinity (Figure 3A). […] A potential explanation for this effect could be that the spacing of clusters is more important for the larger tri-mannosides.
The ECD of DC-SIGN (residues 66–404) was overexpressed and purified as previously described (Tabarani et al., [2009]). The DC-SIGN S-ECD construct used for direct interaction experiment (see below) has been overexpressed and purified as described elsewhere (Porkolab et al., [2019]). The SPR competition experiments were performed on a BIAcore T200 using a CM3 series S sensor chip. Flow cells were activated as previously described (Halary et al., [2002]). Flow cell 1 was functionalized with BSA, blocked with ethanolamine and subsequently used as a control surface. Flow cells 2 and 3 were treated with BSA-Man α1-3[Manα1-6]Man (Dextra) (60 μg/mL) in 10 mM NaOAc pH 4 and blocked with ethanolamine. The final densities on flow cells 2 and 3 were about 2,100 RU. The affinities of the various compounds for DC-SIGN ECD were evaluated via an established inhibition assay (Andreini et al., [2011]) in which DCSIGN ECD was injected at 20 μM alone or in the presence of increasing concentration of inhibitors. Injections were performed at 5 μL/min using 25 mM Tris-HCl pH 8, 150 mM NaCl, 4 mM CaCl2, 0.05% P20 surfactant as running buffer. The surface was regenerated by the injection of 50 mM EDTA. The data was analyzed in BIAcore BIAevaluation software using four parameter equation.

The target in the next experiment is T2, DC-SIGN S-ECD (Homo sapiens, UniProt Q9NNX6).
T2 construct: The ECD of DC-SIGN (residues 66–404) was overexpressed and purified as previously described; made in house
T2 sequence (Q9NNX6 66-404): T1 sequence (Q9NNX6 66-404)
The experiment is described as follows: SPR direct interaction assay on oriented DC-SIGN S-ECD surface. It is filed as binding. Conditions: SPR direct interaction, oriented tetrameric DC-SIGN ECD surface, apparent Kd; read-out: Kdapp. The protocol: as §1
The direct interaction experiments were executed on a T200 Biacore with a CM3 series S sensor chip. Contrary to the competition assay described above, in this test, DC-SIGN ECD used harbors a StreptagII in its N-terminus (DC-SIGN S-ECD) to allow its capture and functionalization onto the surface in an oriented manner. Flow cells were functionalized as previously described (Porkolab et al., [2019]). Briefly, after EDC/NHS activation, flow cells were functionalized with streptactin protein in a first step. Flow cell 1 was used as control, while other flow cells were, in a second round of activation, functionalized with 100 μg/mL of a DC-SIGN S-ECD up to a final density ranging between 2,500 and 3,000 RU, via tag specific capture and linkage by amine coupling chemistry simultaneously. The compounds were injected in running buffer of 25 mM Tris pH 8, 150 mM NaCl, 4 mM CaCl2, 0.05% Tween 20 onto the surface at increasing concentrations with a flow rate of 30 μL/min. The ligand titration led to the determination of an apparent Kd value. The data was analyzed in BIAcore BIAevaluation software for direct interaction 1:1 calculation assuming that the Kd will reflect the affinity of the ligands (glycoclusters) for the DC-SIGN oriented surface used as a whole.

Another experiment has as its system moDCs. The experiment is described as follows: Internalization of biotinylated hexavalent clusters by moDCs (flow cytometry). In kind it is cell-based, human. How it is done: For the internalization, the moDCs were incubated with clusters b6, c6, d6, and e6 for 1 h at 4°C, where after unbound ligands were washed away with ice-cold medium. Warm medium was added to the moDCs, and samples were taken at the indicated time points and put on ice. Upon staining the moDCs with fluorophore-conjugated streptavidin, we could measure the signal loss of the membrane via flow cytometry. To exclude ligand-receptor dissociation before internalization, the moDCs were fixed under gentle conditions, hereby inhibiting receptor-mediated endocytosis. On fixed moDCs the clusters remained at the surface, as no signal loss could be detected (Supplementary Figure 1D). […] The di-mannoside clusters (b6, c6, and d6) were internalized relatively fast, with a 50% uptake within 5 min (Figure 5B). The tri-mannoside cluster e6 however remained longer at the membrane surface and only a 25% uptake was seen after 30 min. Similar results were seen using a pH-sensitive fluorophore. In acidic environments, such as the endosomes and lysosomes, the fluorescence of this dye increases. Pre-complexed clusters mirrored the accelerated uptake of the di-mannoside clusters over the e6 cluster (Supplementary Figure 1E). Although the DC-SIGN mediated uptake mechanism is known (Cambi et al., [2009]), the initiation trigger for endocytosis upon DC-SIGN-ligand binding remains unclear. Recognition of the di-mannoside clusters could induce signaling leading to accelerated uptake, whereas the tri-mannoside cluster could trigger a different signaling pathway. Nonetheless, the clusters harboring the smaller mannosides are preferred. Although the binding affinity of the clusters ranged from 0.9 to 6.6 μM, the di-mannosides induce more rapid DC-SIGN internalization over the tri-mannosides, and can thus increase intracellular peptide concentrations more efficiently for further antigen processing and presentation.
Immature day 5 moDCs were harvested and washed with cold HBSS (Thermo Fischer), after which half of the moDCs were gently fixed for 20 min at RT with 1% PFA in PBS. Afterwards, 20 μM of the different biotinylated mannose-clusters in cold HBSS were added. The moDCs were incubated for 1 h on ice, and washed in cold HBSS. Subsequently, warm HBSS was added to the cells, and cells were incubated at 37°C in a shaking heating block. At the indicated time points, a sample of the cells was taken and put on ice. After the last time point, the cells were stained with Streptavidin-Alexa647 (Thermo Fisher), measured using flow cytometry (CyAn™ ADP with Summit™ Software), and further analyzed using FlowJo v10. The same procedure was used for internalization with pHrodo^TM Red Avidin (Thermo Fischer). The different biotinylated mannose-clusters were however incubated with pHrodo-Avidin (ratio 2:1) for 15 min at 37°C, prior to moDC exposure. The fluorescence upon internalization was measured using flow cytometry (BD LSRFortessa™ X-20 with FACSDiva Software), and further analyzed using FlowJo v10.

The structures appear in SMILES notation. Where “and” joins values, the source holds several entries; their conditions need not be identical. Identical values can stand only once.

Consider `CC(=O)N[C@@H](CCCCn1cc(CO[C@H]2O[C@H](CO)[C@@H](O)[C@H](O)[C@@H]2O)nn1)C(=O)NCC(=O)N[C@@H](CCCCn1cc(CO[C@H]2O[C@H](CO)[C@@H](O)[C@H](O)[C@@H]2O)nn1)C(=O)NCC(=O)N[C@@H](CCCCn1cc(CO[C@H]2O[C@H](CO)[C@@H](O)[C@H](O)[C@@H]2O)nn1)C(=O)NCC(=O)N[C@@H](CCCCN)C(N)=O` [A3], for which the IC50 on DC-SIGN ECD is 736.7 ± 3.4 µM.
Still for that read-out and setting: next, `CC(=O)N[C@@H](CCCCn1cc(CO[C@H]2O[C@H](CO[C@H]3O[C@H](CO)[C@@H](O)[C@H](O)[C@@H]3O)[C@@H](O)[C@H](O)[C@@H]2O)nn1)C(=O)NCC(=O)N[C@@H](CCCCn1cc(CO[C@H]2O[C@H](CO[C@H]3O[C@H](CO)[C@@H](O)[C@H](O)[C@@H]3O)[C@@H](O)[C@H](O)[C@@H]2O)nn1)C(=O)NCC(=O)N[C@@H](CCCCN)C(N)=O` [D2]: 410.9 ± 0.3 µM; `CC(=O)N[C@@H](CCCCn1cc(CO[C@H]2O[C@H](CO)[C@@H](O)[C@H](O)[C@@H]2O)nn1)C(=O)NCC(=O)N[C@@H](CCCCn1cc(CO[C@H]2O[C@H](CO)[C@@H](O)[C@H](O)[C@@H]2O)nn1)C(=O)NCC(=O)N[C@@H](CCCCN)C(N)=O` [A2]: 2600 ± 95 µM; `CC(=O)N[C@@H](CCCCn1cc(CO[C@H]2O[C@H](CO)[C@@H](O)[C@H](O)[C@@H]2O[C@H]2O[C@H](CO)[C@@H](O)[C@H](O)[C@@H]2O)nn1)C(=O)NCC(=O)N[C@@H](CCCCN)C(N)=O` [B1]: 2340 ± 109 µM.
Still for that read-out and setting: next, `CC(=O)N[C@@H](CCCCn1cc(CO[C@H]2O[C@H](CO[C@H]3O[C@H](CO)[C@@H](O)[C@H](O)[C@@H]3O)[C@@H](O)[C@H](O[C@H]3O[C@H](CO)[C@@H](O)[C@H](O)[C@@H]3O)[C@@H]2O)nn1)C(=O)NCC(=O)N[C@@H](CCCCn1cc(CO[C@H]2O[C@H](CO[C@H]3O[C@H](CO)[C@@H](O)[C@H](O)[C@@H]3O)[C@@H](O)[C@H](O[C@H]3O[C@H](CO)[C@@H](O)[C@H](O)[C@@H]3O)[C@@H]2O)nn1)C(=O)NCC(=O)N[C@@H](CCCCN)C(N)=O` [E2]: 306 ± 4.75 µM; `CC(=O)N[C@@H](CCCCn1cc(CO[C@H]2O[C@H](CO[C@H]3O[C@H](CO)[C@@H](O)[C@H](O)[C@@H]3O)[C@@H](O)[C@H](O)[C@@H]2O)nn1)C(=O)NCC(=O)N[C@@H](CCCCN)C(N)=O` [D1]: 6960 ± 3040 µM; `CC(=O)N[C@@H](CCCCn1cc(CO[C@H]2O[C@H](CO)[C@@H](O)[C@H](O)[C@@H]2O[C@H]2O[C@H](CO)[C@@H](O)[C@H](O)[C@@H]2O)nn1)C(=O)NCC(=O)N[C@@H](CCCCn1cc(CO[C@H]2O[C@H](CO)[C@@H](O)[C@H](O)[C@@H]2O[C@H]2O[C@H](CO)[C@@H](O)[C@H](O)[C@@H]2O)nn1)C(=O)NCC(=O)N[C@@H](CCCCN)C(N)=O` [B2]: 189 ± 3.45 µM.
On the same count and under the same terms, next, `CC(=O)N[C@@H](CCCCn1cc(CO[C@H]2O[C@H](CO[C@H]3O[C@H](CO)[C@@H](O)[C@H](O)[C@@H]3O)[C@@H](O)[C@H](O[C@H]3O[C@H](CO)[C@@H](O)[C@H](O)[C@@H]3O)[C@@H]2O)nn1)C(=O)NCC(=O)N[C@@H](CCCCN)C(N)=O` [E1]: 1520 ± 250 µM.
In the case of `CC(=O)N[C@@H](CCCCn1cc(CO[C@H]2O[C@H](CO)[C@@H](O)[C@H](O)[C@@H]2O[C@H]2O[C@H](CO)[C@@H](O)[C@H](O)[C@@H]2O)nn1)C(=O)N[C@@H](CCCCn1cc(CO[C@H]2O[C@H](CO)[C@@H](O)[C@H](O)[C@@H]2O[C@H]2O[C@H](CO)[C@@H](O)[C@H](O)[C@@H]2O)nn1)C(=O)N[C@@H](CCCCn1cc(CO[C@H]2O[C@H](CO)[C@@H](O)[C@H](O)[C@@H]2O[C@H]2O[C@H](CO)[C@@H](O)[C@H](O)[C@@H]2O)nn1)C(=O)N[C@@H](CCCCn1cc(CO[C@H]2O[C@H](CO)[C@@H](O)[C@H](O)[C@@H]2O[C@H]2O[C@H](CO)[C@@H](O)[C@H](O)[C@@H]2O)nn1)C(=O)N[C@@H](CCCCn1cc(CO[C@H]2O[C@H](CO)[C@@H](O)[C@H](O)[C@@H]2O[C@H]2O[C@H](CO)[C@@H](O)[C@H](O)[C@@H]2O)nn1)C(=O)N[C@@H](CCCCn1cc(CO[C@H]2O[C@H](CO)[C@@H](O)[C@H](O)[C@@H]2O[C@H]2O[C@H](CO)[C@@H](O)[C@H](O)[C@@H]2O)nn1)C(=O)NCC(=O)N[C@@H](CCCCN)C(N)=O` [B6], on DC-SIGN S-ECD, the Kd was 0.95 µM and 0.946 µM and 0.9 µM. Besides, the “internalization by moDCs (loss of surface streptavidin signal)” value in the experiment with moDCs (20 μM cluster, live moDCs) was “rapidly internalized”. Besides, the “internalization by moDCs (pHrodo-avidin fluorescence increase)” value in the experiment on moDCs (clusters pre-complexed with pH-sensitive dye) is “internalized rapidly”. Besides, the “uptake by immature moDCs” value in the experiment on moDCs (within 5 min at 37°C, 20 μM cluster) came out at 50%.
At DC-SIGN ECD, `CC(=O)N[C@@H](CCCCn1cc(CO[C@H]2O[C@H](CO)[C@@H](O)[C@H](O[C@H]3O[C@H](CO)[C@@H](O)[C@H](O)[C@@H]3O)[C@@H]2O)nn1)C(=O)NCC(=O)N[C@@H](CCCCn1cc(CO[C@H]2O[C@H](CO)[C@@H](O)[C@H](O[C@H]3O[C@H](CO)[C@@H](O)[C@H](O)[C@@H]3O)[C@@H]2O)nn1)C(=O)NCC(=O)N[C@@H](CCCCN)C(N)=O` [C2] registered an IC50 of 567.4 ± 1.15 µM.

Broadly, the IC50 is the midpoint of a concentration-inhibition curve. High values mean weaker potency in that assay, low ones greater potency in that assay.
